Entries after “also recorded” stand apart in the source; their conditions may differ. Like-named read-outs stand apart in the source and are kept apart here.
Assays:
[1] = test system: STAT5a/5b; assay: STAT5a/5b phosphorylation in K562 cells (Western blot); type: cell-based, human; details: Tyr694 (STAT5a)/Tyr699 (STAT5b), read-out: IC 50, STAT5a/5b‐phosphorylation
Experimental: (§1) Cells were […]
harvested by washing twice with ice -cold TBS, followed by resuspension in TBS supplemented with protease/phosphatase inhibitors (100 ng/ml aprotinin, 1 mM Na3VO4, 10 mM NaF, 1 mM […]
(§2) The components of cell lysates from treated cells, or heat-treated lysates from CETSA, were separated by SDS-PAGE (10%), transferred to nitrocellulose membrane (Bio-Rad) and detected using monoclonal rabbit primary antibodies (Cell Signaling), α-rabbit-HRP secondary antibody (Dako) and Western Lightning Plus chemiluminescence reagent (Perkin Elmer).
(§3) Bands were visualized using an ImageQuant system (GE Healthcare) and quantitated using ImageJ software (NIH). […]
(§4) The sitting drop was composed of 0.1 µl protein solution and 0.1 µl reservoir solution. Plates were stored at 19°C in a protein […]
(§5) In the first set of experiments, w e tried to crystallize STAT4 as a SUMO -STAT4 fusion protein […]
(§6) was cleaved off as described above.
Screening for crystallization conditions for tag-free STAT4 was performed both in the absence or presence of 1 equivalent of 6m or 6h. Since the chosen protein concentration of 3.6 mg/ml appeared to be too low, screening was repeated with a higher concentration of 6.4 mg/ml STAT4 for all conditions (corresponding to 100 µM 6m). Both the SUMO-STAT4 and the tag-free STAT4 preferentially precipitated under conditions containing polyethylene glycol. […]

[2] = test system: IFN‐γ induction; assay: IL-12/IL-18-mediated IFN-γ induction in NK-92 cells; type: cell-based, human; details: 4 h, 50 ng/ml IL-12 and 10 ng/ml IL-18
Experimental: (§7) NK-92 cells (DSMZ) were cultured in α-MEM containing 12.5% fetal bovine serum (FBS), 12.5% horse serum, 2 mM L-glutamine, penicillin/streptomycin and 50 U/ml IL -2. […]
(§8) NK-92 cells were treated with test compound or DMSO in 1.5 ml medium in 12 -well plates (Corning) for 2 h (final DMSO concentration 0.2%), in the presence of 50 ng/ml IL -12 (PeproTech). For IFN-γ experiments (Figure 6 and S6), NK -92 cells or TALL-104 cells were treated for 4 h in the presence of 50 ng/ml IL-12 and 10 ng/ml IL-18 (Bio-Techne). […]
as §2, §3, §4, §5, §6
Screening for crystallization conditions for tag-free STAT4 was performed both in the absence or presence of 1 equivalent of 6m or 6h. […]

[3] = test system: IFN‐γ induction; assay: IFN-γ induction in TALL-104 cells; type: cell-based, human; details: 4 h, IL-12 or IL-12 and IL-18
Experimental: as §7, with “-2. TALL-104 cells (ATCC, LGC Standards) were cultured in RPMI 1640 medium containing 20% FBS, 2 mM L - glutamine, penicillin/streptomy cin and 100 U/ml IL-2.” for “-2.”
as §8, §2, §3, §4, §5
(§9) was cleaved off as described above. […]

[4] = target: STAT3 (Homo sapiens, UniProt P40763); assay: STAT3 Tyr705 phosphorylation in HCC-827 cells (Western blot); type: cell-based; set-up: endogenous in cells; details: serum-free conditions, read-out: IC 50, phosphorylation of STAT3 (Tyr705)
Experimental: HCC-827 cells (DSMZ) and K562 cells
(DSMZ) were cultured in RPMI 1640 medium containing 10% FBS, 2 mM L -glutamine and penicillin/streptomycin. HCC -827 cells were subcultured by briefly rinsing with sterile PBS followed by incubation with 0.25% Trypsin-EDTA solution before inactivation by addition of cell culture medium (all reagents apart from cell lines were from Gibco at Thermo Fisher Scientific). […]
as §1
harvested by washing twice with ice -cold TBS, followed by resuspension in TBS supplemented with protease/phosphatase inhibitors (100 ng/ml aprotinin, 1 mM Na3VO4, 10 mM NaF, 1 mM PMSF). The adherent HCC-827 cells were mechanically separated from the culture surface using plastic cell scrapers (A. Hartenstein). […]
as §2, §3, §4

[5] = target: T1, STAT4 (Homo sapiens, UniProt Q14765); assay: IL-12-induced STAT4 Tyr693 phosphorylation in NK-92 cells (Western blot); type: cell-based; set-up: utilizing cellular lysates from the STAT4‐expressing natural killer cell line NK‐92; endogenous in cells; host or cells: NK-92 (DSMZ)
T1 sequence (Q14765 1-748): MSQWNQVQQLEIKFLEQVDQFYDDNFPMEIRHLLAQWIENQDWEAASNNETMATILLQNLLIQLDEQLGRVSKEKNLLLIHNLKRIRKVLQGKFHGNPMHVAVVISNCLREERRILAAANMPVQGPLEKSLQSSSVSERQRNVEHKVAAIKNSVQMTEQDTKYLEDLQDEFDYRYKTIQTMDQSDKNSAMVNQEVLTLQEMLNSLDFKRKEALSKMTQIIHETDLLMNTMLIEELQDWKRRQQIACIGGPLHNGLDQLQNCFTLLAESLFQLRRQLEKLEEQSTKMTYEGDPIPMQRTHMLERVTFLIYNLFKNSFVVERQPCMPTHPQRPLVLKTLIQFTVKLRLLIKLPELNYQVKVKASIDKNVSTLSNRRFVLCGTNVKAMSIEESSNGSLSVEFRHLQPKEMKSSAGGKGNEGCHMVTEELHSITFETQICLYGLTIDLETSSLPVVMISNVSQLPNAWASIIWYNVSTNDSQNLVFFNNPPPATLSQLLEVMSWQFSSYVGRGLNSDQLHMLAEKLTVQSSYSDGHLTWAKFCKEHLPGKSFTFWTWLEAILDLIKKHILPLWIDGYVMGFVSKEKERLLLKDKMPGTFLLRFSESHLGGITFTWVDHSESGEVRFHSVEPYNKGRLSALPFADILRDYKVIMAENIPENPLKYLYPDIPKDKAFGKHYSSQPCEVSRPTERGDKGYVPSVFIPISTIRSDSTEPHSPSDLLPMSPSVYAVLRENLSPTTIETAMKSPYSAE
Experimental: as §7, §2, §3, §4, §5, §6
Screening for crystallization conditions for tag-free STAT4 was performed both in the absence or presence of 1 equivalent of 6m or 6h. Since the chosen protein concentration of 3.6 mg/ml appeared to be too low, screening was repeated with a higher concentration of 6.4 mg/ml STAT4 for all conditions (corresponding to 100 µM 6m). Both the SUMO-STAT4 and the tag-free STAT4 preferentially precipitated under conditions containing polyethylene glycol. In one set of experiments, we also screened for conditions in the presence of the high-affinity peptide GY(PO3H2)LPQNID adapted from the IL-12 receptor. However, none of the conditions resulted in the growth of STAT4 crystals (Table S4).

[6] = target: T1, STAT4; assay: STAT4 phosphorylation in TALL-104 cells stimulated by IL-12 or IL-12 and IL-18; type: cell-based; set-up: utilizing cellular lysates from the STAT4‐expressing natural killer cell line NK‐92; endogenous in cells; host or cells: NK-92 (DSMZ); details: 4 h
Experimental: as §7, with “-2. TALL-104 cells (ATCC, LGC Standards) were cultured in RPMI 1640 medium containing 20% FBS, 2 mM L - glutamine, penicillin/streptomy cin and 100 U/ml IL-2.” for “-2.”
as §8, §2, §3, §4, §5, §9

Sequence of STAT3 (P40763 whole entry): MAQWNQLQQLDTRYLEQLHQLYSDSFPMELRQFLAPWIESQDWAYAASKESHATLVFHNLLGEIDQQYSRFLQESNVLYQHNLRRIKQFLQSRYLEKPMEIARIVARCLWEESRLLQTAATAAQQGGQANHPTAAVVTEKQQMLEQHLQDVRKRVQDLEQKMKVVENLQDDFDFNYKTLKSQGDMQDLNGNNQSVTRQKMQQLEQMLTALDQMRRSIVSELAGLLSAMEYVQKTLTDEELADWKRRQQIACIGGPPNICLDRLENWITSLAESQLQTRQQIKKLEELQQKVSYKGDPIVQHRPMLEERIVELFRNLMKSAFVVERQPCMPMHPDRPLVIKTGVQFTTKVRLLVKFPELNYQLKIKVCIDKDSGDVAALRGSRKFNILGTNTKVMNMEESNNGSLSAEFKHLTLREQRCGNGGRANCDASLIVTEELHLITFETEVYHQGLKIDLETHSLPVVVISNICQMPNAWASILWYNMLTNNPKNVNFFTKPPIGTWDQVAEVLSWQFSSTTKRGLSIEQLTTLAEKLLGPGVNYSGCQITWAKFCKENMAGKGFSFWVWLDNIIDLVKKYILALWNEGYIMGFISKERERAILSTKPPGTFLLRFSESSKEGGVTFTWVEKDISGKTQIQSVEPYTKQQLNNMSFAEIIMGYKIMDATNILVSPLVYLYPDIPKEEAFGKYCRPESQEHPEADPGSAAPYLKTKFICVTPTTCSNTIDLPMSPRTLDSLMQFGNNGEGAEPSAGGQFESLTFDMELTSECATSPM

SMILES: Cc1cc(-c2ccc(C(F)(F)P(=O)(OCOC(=O)C(C)(C)C)OCOC(=O)C(C)(C)C)c(F)c2)cs1 [Compound 9]
- IC50 [1]: > 25 µM
- IL12/IL‐18‐mediated IFN‐γ induction [2]: strongly reduced; also recorded: inhibits
- IFN‐γ induction [3]: inhibited
- IC50 [4]: 19 µM
- inhibition of IL‐12‐induced STAT4 Tyr693 phosphorylation ([5]; 2 h, presence of 25% serum): moderately inhibits
- IC50 ([5]; 2 h, presence of 25% serum, read-out: IC 50, IL‐12‐induced STAT4 phosphorylation): 77 µM
- IL‐12/IL‐18‐mediated STAT4 phosphorylation ([5]; 4 h, 50 ng/ml IL-12 and 10 ng/ml IL-18): strongly reduced; also recorded: inhibits
- IC50 ([5]; IL-12, absence of serum, read-out: IC 50, STAT4 Tyr693 phosphorylation): 3.3 µM
- STAT4 phosphorylation stimulated by IL‐12 alone or co‐stimulated by IL‐12 and IL‐18 [6]: inhibited

— publication PMC12087874, “Biaryl Phosphates and Phosphonates as Selective Inhibitors of the Transcription Factor STAT4” (Angewandte Chemie (International Ed. in English), 2025)
